Assay results: PMC3315157 (Biochemistry, 2012)
Values joined by “and” are separate entries in the source; they are usually repeats but may differ in a detail not shown here. Identical values can stand only once. Like-named read-outs stand apart in the source and are kept apart here.

Experiments:
Torpedo nAChR [1] = target: T1, Torpedo nAChR (Tetronarce californica, UniProt P02710+P02712+P02714+P02718); assay: biochemical; format: binding; conditions: for reduction of agonist-enhanced [125I]SADU-3-72 photolabeling within αV8-20K: 130 μM bupropion (separate experiment) or TCP
T1 sequence (P02710 25-461): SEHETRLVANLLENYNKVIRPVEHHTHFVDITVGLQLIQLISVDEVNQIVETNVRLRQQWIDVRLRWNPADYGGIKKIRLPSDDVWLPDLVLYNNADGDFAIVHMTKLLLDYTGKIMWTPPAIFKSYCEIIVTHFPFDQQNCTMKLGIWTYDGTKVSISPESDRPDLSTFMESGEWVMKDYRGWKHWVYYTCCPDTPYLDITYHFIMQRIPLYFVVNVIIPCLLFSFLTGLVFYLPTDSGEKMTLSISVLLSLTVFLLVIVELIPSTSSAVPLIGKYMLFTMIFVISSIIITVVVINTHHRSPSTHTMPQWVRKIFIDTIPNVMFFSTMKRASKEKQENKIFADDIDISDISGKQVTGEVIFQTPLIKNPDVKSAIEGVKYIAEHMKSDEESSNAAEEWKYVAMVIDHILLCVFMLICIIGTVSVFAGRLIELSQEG
T1 sequence (P02712 25-493): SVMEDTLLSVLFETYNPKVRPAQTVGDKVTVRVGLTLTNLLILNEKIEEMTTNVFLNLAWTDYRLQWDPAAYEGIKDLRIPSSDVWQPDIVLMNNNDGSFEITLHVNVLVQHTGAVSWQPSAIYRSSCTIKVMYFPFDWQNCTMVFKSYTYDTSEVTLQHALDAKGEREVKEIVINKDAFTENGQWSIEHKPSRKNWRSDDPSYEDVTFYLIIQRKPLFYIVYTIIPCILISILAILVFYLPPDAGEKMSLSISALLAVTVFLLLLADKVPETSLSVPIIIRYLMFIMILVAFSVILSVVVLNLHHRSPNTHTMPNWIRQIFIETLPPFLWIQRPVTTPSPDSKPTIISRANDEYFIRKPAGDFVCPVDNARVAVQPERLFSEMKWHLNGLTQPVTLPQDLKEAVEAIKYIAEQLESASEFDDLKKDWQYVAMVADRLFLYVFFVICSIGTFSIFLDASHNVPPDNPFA
T1 sequence (P02714 18-506): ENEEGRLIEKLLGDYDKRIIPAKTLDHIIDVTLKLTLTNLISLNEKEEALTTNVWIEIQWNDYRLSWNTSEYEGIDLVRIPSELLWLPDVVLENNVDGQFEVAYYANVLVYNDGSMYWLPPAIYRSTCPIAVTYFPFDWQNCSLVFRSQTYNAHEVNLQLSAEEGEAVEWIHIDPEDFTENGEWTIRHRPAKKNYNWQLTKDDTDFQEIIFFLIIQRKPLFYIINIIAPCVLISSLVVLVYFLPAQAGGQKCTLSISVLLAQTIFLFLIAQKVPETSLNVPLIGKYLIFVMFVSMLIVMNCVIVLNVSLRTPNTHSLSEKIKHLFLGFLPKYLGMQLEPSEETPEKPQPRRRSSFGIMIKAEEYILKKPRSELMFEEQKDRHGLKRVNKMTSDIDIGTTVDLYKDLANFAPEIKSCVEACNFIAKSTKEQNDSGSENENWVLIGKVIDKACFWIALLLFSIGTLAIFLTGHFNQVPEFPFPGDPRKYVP
T1 sequence (P02718 22-522): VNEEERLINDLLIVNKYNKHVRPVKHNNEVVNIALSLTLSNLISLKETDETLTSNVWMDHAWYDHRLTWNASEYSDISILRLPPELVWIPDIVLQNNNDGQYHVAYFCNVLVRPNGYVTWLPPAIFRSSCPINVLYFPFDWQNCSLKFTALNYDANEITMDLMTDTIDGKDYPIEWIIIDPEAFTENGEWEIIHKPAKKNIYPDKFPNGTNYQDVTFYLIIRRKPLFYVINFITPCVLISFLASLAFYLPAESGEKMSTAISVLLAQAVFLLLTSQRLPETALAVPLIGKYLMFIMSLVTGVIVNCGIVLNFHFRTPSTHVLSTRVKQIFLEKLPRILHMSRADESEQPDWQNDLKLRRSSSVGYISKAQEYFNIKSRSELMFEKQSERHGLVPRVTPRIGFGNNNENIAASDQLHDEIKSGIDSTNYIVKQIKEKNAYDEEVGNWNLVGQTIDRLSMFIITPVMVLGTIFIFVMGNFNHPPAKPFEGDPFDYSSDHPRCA

Torpedo nAChR [2] = target: T1, Torpedo nAChR; assay: [125I]-SADU-3-72 competition binding assay
Torpedo nAChR [3] = target: T1, Torpedo nAChR; format: cell-based
[4] = system: α1β1εδ (adult mouse muscle-type) nAChRs; conditions: read-out: IC50, impaired channel opening; binding to the resting nAChR; HEK-293 cells; cited from earlier work
[5] = resting state (+α-BgTx), tetracaine 130 μM, native nAChR-rich membranes, n=1
[6] = desensitized state (Carb), TCP 130 μM, native nAChR-rich membranes, n=1

SMILES: CCCCNc1ccc(C(=O)OCCN(C)C)cc1 [tetracaine]
- inhibition at 130 µM (Torpedo nAChR [1]; read-out: inhibition of [125I]SADU-3-72 labeling within αV8-20K fragment): 49%
- inhibition at 130 µM (Torpedo nAChR [1]; read-out: inhibition of [125I]SADU-3-72 labeling within βV8-22/23K fragment): 76%
- inhibition at 130 µM (Torpedo nAChR [1]; read-out: inhibition of [125I]SADU-3-72 labeling within γV8-24K fragment): 79%
- inhibition at 130 µM (Torpedo nAChR [1]; read-out: inhibition of [125I]SADU-3-72 labeling within δV8-14K fragment): 88%
- reduction of [125I]SADU-3-72 photolabeling in α-subunit (Torpedo nAChR [1]; [5]): < 5%
- reduction of [125I]SADU-3-72 photolabeling in β-subunit (Torpedo nAChR [1]; [5]): 55%
- reduction of [125I]SADU-3-72 photolabeling in γ-subunit (Torpedo nAChR [1]; [5]): 51%
- reduction of [125I]SADU-3-72 photolabeling in δ-subunit (Torpedo nAChR [1]; [5]): 73%
- inhibition of [125I]-SADU-3-72 photoincorporation within subunit fragments containing the M2 segments (Torpedo nAChR [1]; resting state, αV8-20, βV8-22, γV8-24 and δV8-14): 50–90%

SMILES: c1csc(C2(N3CCCCC3)CCCCC2)c1 [TCP, 1-(1-(2-Thienyl)cyclohexyl) piperidine (tenocyclidine)]
- effect on [125I]SADU-3-72 labeling of δLeu265 (M2-9) (Torpedo nAChR [1]; desensitized state (400 μM Carb), 130 μM TCP, preparative photolabeling): eliminated
- reduction of agonist-enhanced [125I]SADU-3-72 photolabeling within αV8-20K (Torpedo nAChR [1]; desensitized state (Carb)): not inhibited
- effect on [125I]SADU-3-72 β subunit labeling (Torpedo nAChR [1]; [6]): unchanged
- increase of [125I]SADU-3-72 photolabeling in α-subunit (Torpedo nAChR [1]; [6]): ~ 15%
- effect on [125I]SADU-3-72 labeling in βV8-22/23K, γV8-24K and δV8-14K fragments (Torpedo nAChR [1]; desensitized state (Carb), TCP (140 μM in Figure 5 legend)): further inhibited labeling
- inhibition at 130 µM (Torpedo nAChR [1]; read-out: inhibition of [125I]SADU-3-72 photolabeling in γ-subunit): ~35%
- inhibition at 130 µM (Torpedo nAChR [1]; read-out: inhibition of [125I]SADU-3-72 photolabeling in δ-subunit): ~35%

SMILES: CC(NC(C)(C)C)C(=O)c1ccc(N=[N+]=[N-])c(I)c1 (racemic) [SADU-3-72, (±)-2-(N-tert-butylamino)-3′-[^125I]-iodo-4′-azidopropiophenone]
- IC50 (Torpedo nAChR [2]; read-out: IC50, inhibition of [125I]SADU-3-72 binding, affinity-purified, lipid-reconstituted nAChR, absence of Carb (resting state)): 2300 ± 700 nM

SMILES: CC(=O)OCC[N+](C)(C)C [ACh, Acetylcholine]
- Hill coefficient nH, ACh dose-response curve (Torpedo nAChR [3]; n=1): 1.5

SMILES: CC(NC(C)(C)C)C(=O)c1cccc(Cl)c1 (racemic) [bupropion, (±)-2-(tert-butylamino)-1-(3-chlorophenyl) propan-1-one]
- IC50 (Torpedo nAChR [3]): 340 nM and 300 nM
- Hill coefficient nH of inhibition of ACh-induced currents (Torpedo nAChR [3]; co-applied with 50 μM ACh, n=7 oocytes): 0.98 ± 0.14
- IC50 (Torpedo nAChR [2]; IC50, inhibition of [125I]SADU-3-72 binding, native nAChR-rich membranes, desensitized state (400 μM Carb)): 1200 nM and 1000 nM
- fold higher affinity in the desensitized than in the resting state (Torpedo nAChR [2]; from inhibition of [125I]SADU-3-72 binding / photoincorporation): three-fold
- IC50 (Torpedo nAChR [1]; IC50, inhibition of δ subunit [125I]SADU-3-72 photolabeling, presence of Carb (desensitized state)): 2100 nM and 2000 nM
- reduction of agonist-enhanced [125I]SADU-3-72 photolabeling within αV8-20K (Torpedo nAChR [1]; desensitized state (Carb)): 70%
- IC50 [4]: 400 nM
